Literature values in US8216786B2, “Genetic polymorphisms associated with cardiovascular diseases, methods of detection and uses thereof” (Celera Corporation, priority 2008, dated 2012).

System: animal models and myocyte cultures
Conditions: compared to lipophilic statins; cited from earlier work

For `CC[C@H](C)C(=O)O[C@H]1C[C@H](O)C=C2C=C[C@H](C)[C@H](CC[C@@H](O)C[C@@H](O)CC(=O)O)[C@H]21` [pravastatin], the myopathic potential is listed as “low myopathic potential”.
